Data as given in the supplement of paper PMC9663587.

Assays:
[1] = compound: CCc1cnn2c(NCc3ccc[n+]([O-])c3)cc(N3CCCC[C@H]3CCO)nc12; test: increase in dead-cell fraction, 72 h; higher = more death;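 further: breast cancer cell lines in 384-well plates, stained with Hoechst plus LIVE/DEAD far red dye and imaged, cells above an LDR intensity threshold counted dead, Hoechst-negative corpses included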
LEE011/Ribociclib = compound: CN(C)C(=O)c1cc2cnc(Nc3ccc(N4CCNCC4)cn3)nc2n1C1CCCC1 [LEE011/Ribociclib]; test: as above
BSJ-03-123 = compound: CC(=O)c1c(C)c2cnc(Nc3ccc(N4CCN(CCOCCOCCOCCNC(=O)COc5cccc6c5C(=O)N(C5CCC(=O)NC5=O)C6=O)CC4)cn3)nc2n(C2CCCC2)c1=O [BSJ-03-123]; test: as above
[2] = compound: CC(=O)c1c(C)c2cnc(Nc3ccc(N4CCNCC4)cn3)nc2n(C2CCCC2)c1=O; test: as above
[3] = compound: CCN1CCN(Cc2ccc(Nc3ncc(F)c(-c4cc(F)c5nc(C)n(C(C)C)c5c4)n3)nc2)CC1; test: as above
Flavopiridol = compound: CN1CC[C@H](c2c(O)cc(O)c3c(=O)cc(-c4ccccc4Cl)oc23)[C@H](O)C1 [Flavopiridol]; test: as above
THZ1 = compound: CN(C)C/C=C/C(=O)Nc1ccc(C(=O)Nc2cccc(Nc3ncc(Cl)c(-c4c[nH]c5ccccc45)n3)c2)cc1 [THZ1]; test: as above
Neratinib/HKI272 = compound: CCOc1cc2ncc(C#N)c(Nc3ccc(OCc4ccccn4)c(Cl)c3)c2cc1NC(=O)/C=C/CN(C)C [Neratinib/HKI272]; test: as above
AZD2014 = compound: CNC(=O)c1cccc(-c2ccc3c(N4CCOC[C@@H]4C)nc(N4CCOC[C@@H]4C)nc3n2)c1 [AZD2014]
BSJ-01-175 = compound: CN(C)C/C=C/C(=O)Nc1ccc(O[C@@H]2CCC[C@@H](Nc3ncc(Cl)c(-c4c[nH]c5ccccc45)n3)C2)cc1 [BSJ-01-175]
Tivantinib/ARQ197 = compound: O=C1NC(=O)[C@@H](c2cn3c4c(cccc24)CCC3)[C@@H]1c1c[nH]c2ccccc12 [Tivantinib/ARQ197]
AZD7762 = compound: NC(=O)Nc1cc(-c2cccc(F)c2)sc1C(=O)N[C@H]1CCCNC1 [AZD7762]
[4] = compound: CCC1=CN=CN=C1N2CCN(CC2)CC3=NC4=C(N3)C=C(C=C4)C(F)(F)F
Vorinostat = compound: O=C(CCCCCCC(=O)Nc1ccccc1)NO [Vorinostat]
[5] = compound: CCN1CCN(Cc2ccc(Nc3ncc(F)c(-c4cc(F)c5nc(C)n(C(C)C)c5c4)n3)nc2)CC1
Ipatasertib/GDC0068 = compound: CC(C)NC[C@@H](C(=O)N1CCN(c2ncnc3c2[C@H](C)C[C@H]3O)CC1)c1ccc(Cl)cc1 [Ipatasertib/GDC0068]
[6] = compound: CC(=O)Nc1cccc(-n2c(=O)n(C3CC3)c(=O)c3c(Nc4ccc(I)cc4F)n(C)c(=O)c(C)c32)c1
[7] = compound: COc1ccc2c(c1)[C@]1(C[C@H]1c1ccc3c(/C=C/c4ccc(CN5C[C@@H](C)O[C@@H](C)C5)cc4)n[nH]c3c1)C(=O)N2
AZD6738 = compound: C[C@@H]1COCCN1c1cc(C2([S@](C)(=N)=O)CC2)nc(-c2cc[nH]c3nccc2-3)n1 [AZD6738]
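Wherever GR50, 72 h is given: breast cancer and non-malignant breast epithelial cell lines, Deep Dye Drop or Dye Drop imaging, nine half-log doses, GR normalized to time-zero plates and DMSO-only controls.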

MDAMB330
increase in dead-cell fraction ([1]; 0.0001 µM): -0.0012
increase in dead-cell fraction ([1]; 0.0003162 µM): -0.0001
increase in dead-cell fraction ([1]; 0.001 µM): 0.0032
increase in dead-cell fraction ([1]; 0.003162 µM): 0.0022
increase in dead-cell fraction ([1]; 0.01 µM): 0.0023
increase in dead-cell fraction ([1]; 0.03162 µM): 0.0691
increase in dead-cell fraction (LEE011/Ribociclib; 0.001 µM): 0.0031
increase in dead-cell fraction (LEE011/Ribociclib; 0.003162 µM): 0.0013
increase in dead-cell fraction (LEE011/Ribociclib; 0.01 µM): 0.0054
increase in dead-cell fraction (LEE011/Ribociclib; 0.03162 µM): 0.0111
increase in dead-cell fraction (LEE011/Ribociclib; 0.1 µM): 0.0037
increase in dead-cell fraction (LEE011/Ribociclib; 0.3162 µM): -0.0005
increase in dead-cell fraction (LEE011/Ribociclib; 1 µM): -0.0028
increase in dead-cell fraction (LEE011/Ribociclib; 3.162 µM): 0.0128
increase in dead-cell fraction (LEE011/Ribociclib; 10 µM): 0.0025
increase in dead-cell fraction (BSJ-03-123; 0.001 µM): 0.0018
increase in dead-cell fraction (BSJ-03-123; 0.003162 µM): 0.0001
increase in dead-cell fraction (BSJ-03-123; 0.01 µM): 0.0015
increase in dead-cell fraction (BSJ-03-123; 0.03162 µM): 0.003
increase in dead-cell fraction (BSJ-03-123; 0.1 µM): 0.0019
increase in dead-cell fraction (BSJ-03-123; 0.3162 µM): 0.0031
increase in dead-cell fraction (BSJ-03-123; 1 µM): 0.0019
increase in dead-cell fraction (BSJ-03-123; 3.162 µM): 0.0034
increase in dead-cell fraction (BSJ-03-123; 10 µM): 0.0354
increase in dead-cell fraction ([2]; 0.0003162 µM): -0.001
increase in dead-cell fraction ([2]; 0.001 µM): -0.0006
increase in dead-cell fraction ([2]; 0.003162 µM): -0.001
increase in dead-cell fraction ([2]; 0.01 µM): -0.0033
increase in dead-cell fraction ([2]; 0.03162 µM): -0.0012
increase in dead-cell fraction ([2]; 0.1 µM): -0.0017
increase in dead-cell fraction ([2]; 0.3162 µM): 0.0031
increase in dead-cell fraction ([2]; 1 µM): 0.0053
increase in dead-cell fraction ([2]; 3.162 µM): 0.0031
increase in dead-cell fraction ([3]; 0.001 µM): 0.0005
increase in dead-cell fraction ([3]; 0.003162 µM): -0.0003
increase in dead-cell fraction ([3]; 0.01 µM): 0.0039
increase in dead-cell fraction ([3]; 0.03162 µM): 0.003
increase in dead-cell fraction ([3]; 0.1 µM): 0.0014
increase in dead-cell fraction ([3]; 0.3162 µM): 0.0018
increase in dead-cell fraction ([3]; 1 µM): 0.0017
increase in dead-cell fraction ([3]; 3.162 µM): 0.0048
increase in dead-cell fraction ([3]; 10 µM): 0.0109
increase in dead-cell fraction (Flavopiridol; 0.0001 µM): -0.0007
increase in dead-cell fraction (Flavopiridol; 0.0003162 µM): 0.0052
increase in dead-cell fraction (Flavopiridol; 0.001 µM): -0.0013
increase in dead-cell fraction (Flavopiridol; 0.003162 µM): -0.0006
increase in dead-cell fraction (Flavopiridol; 0.01 µM): -0.0015
increase in dead-cell fraction (Flavopiridol; 0.03162 µM): 0.0024
increase in dead-cell fraction (Flavopiridol; 0.1 µM): -0.0007
increase in dead-cell fraction (Flavopiridol; 0.3162 µM): 0.0097
increase in dead-cell fraction (Flavopiridol; 1 µM): 0.25
increase in dead-cell fraction (THZ1; 0.0001 µM): 0.0016
increase in dead-cell fraction (THZ1; 0.0003162 µM): 0.0039
increase in dead-cell fraction (THZ1; 0.001 µM): 0.0043
increase in dead-cell fraction (THZ1; 0.003162 µM): 0.0044
increase in dead-cell fraction (THZ1; 0.01 µM): 0.0071
increase in dead-cell fraction (THZ1; 0.03162 µM): 0.105
increase in dead-cell fraction (THZ1; 0.1 µM): 0.359
increase in dead-cell fraction (THZ1; 0.3162 µM): 0.389
increase in dead-cell fraction (THZ1; 1 µM): 0.311
increase in dead-cell fraction (Neratinib/HKI272; 0.0003162 µM): -0.0001
increase in dead-cell fraction (Neratinib/HKI272; 0.001 µM): 0.0011
increase in dead-cell fraction (Neratinib/HKI272; 0.003162 µM): 0.0102
increase in dead-cell fraction (Neratinib/HKI272; 0.01 µM): 0.043
increase in dead-cell fraction (Neratinib/HKI272; 0.03162 µM): 0.0716
increase in dead-cell fraction (Neratinib/HKI272; 0.1 µM): 0.0731
increase in dead-cell fraction (Neratinib/HKI272; 0.3162 µM): 0.0685
increase in dead-cell fraction (Neratinib/HKI272; 1 µM): 0.0784
increase in dead-cell fraction (Neratinib/HKI272; 3.162 µM): 0.0756
GR50, 72 h (AZD2014): < 0.001 µM
GR50, 72 h (BSJ-01-175): 0.00635 µM
GR50, 72 h (Tivantinib/ARQ197): 0.661 µM
GR50, 72 h (AZD7762): 0.0449 µM
GR50, 72 h [4]: > 10 µM
GR50, 72 h (Vorinostat): 1.55 µM
GR50, 72 h [5]: 0.00409 µM
GR50, 72 h (Ipatasertib/GDC0068): 0.38 µM
GR50, 72 h [6]: 0.138 µM
GR50, 72 h [7]: 0.00542 µM
GR50, 72 h (AZD6738): 8.42 µM
